*1 amine or outer side, *2 acyl side, *3 side chain or, on linkers, in order; H or OH if unused. Where a SMILES comes first, the peptide text is derived from it. Bridges are numbered along the chain shown (N, C = ends). [ ]: non-standard residue; d: D form. The star is where a group is joined. Orn(4R-OH,5R-OH) = O=C([C@H](C[C@@H](O)[C@@H](O)N[*:3])N[*:1])[*:2]; Tetradecanoyl(10R,12S-Me2) = CC[C@H](C)C[C@H](C)CCCCCCCCC(=O)*; hTyr(3S-OH,4S-OH) = N[C@H](C(=O)O)[C@H](O)[C@@H](O)c1ccc(O)cc1; Gln(3R-OH) = NC(=O)C[C@@H](O)[C@H](N)C(=O)O; Pro(3S-OH) = O=C(O)[C@H]1NCC[C@@H]1O; Hyp = O=C(O)[C@@H]1C[C@@H](O)CN1
Columns and labels:
[1] = test system: PKA-phosphorylated TMR-cC0-C2 (cC0-C2#P); experiment: FLT-TMR concentration-response assay, PKA-phosphorylated cC0-C2; assay type: binding, human; conditions: 60 μM compound
How it was run: (§1)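 Hits tested at eight concentrations (0.5–100 μM) and read on a high-throughput fluorescence lifetime plate reader. Hill fits applied only under certain conditions.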

[2] = test system: FMAL-actin/PKA-phosphorylated TMR-cC0-C2 interaction; experiment: FLT-FRET concentration-response assay, FMAL-actin plus PKA-phosphorylated TMR-cC0-C2; assay type: binding, human; conditions: phosphorylated cC0-C2
Description: Compounds identified as initial hits were further examined to determine the concentration–response curves for seven conditions ([1]): FMAL-actin alone identified actin-binding compounds that alter the FLT of FMAL-actin ([2]).
Fluorescence lifetime (FLT) measurements were acquired using a high-throughput FLT plate reader (Fluorescence Innovations, Inc) ([14], [27]), provided by Photonic Pharma LLC. […] The observed waveforms were analyzed as described previously ([15], [28]).
The primary hits were dissolved in DMSO to make a 10 mM stock solution, which was serially diluted in 96-well mother plates. Hits were screened at eight concentrations (0.5–100 μM). […] Compounds (1 μl) were transferred from the mother plates into 384-well plates using a Mosquito HV liquid handler (TTP Labtech Ltd, Hertfordshire, UK). The same procedure of dispensing as for the pilot screening was applied in the concentration-response assays. Concentration dependence of the FLT-FRET (E/EDMSO) or FLT-TMR (Δτ) change data was fit to a Hill equation only under certain conditions to help guide the eye (Fig. 4).

[3] = test system: FMAL-actin/TMR-cC0-C2 interaction; experiment: FLT-FRET concentration-response assay, FMAL-actin plus TMR-cC0-C2; assay type: binding, human; conditions: unphosphorylated cC0-C2
How it was run: as §1

[4] = test system: FMAL-actin/TMR-fC1-C2 interaction; experiment: FLT-FRET concentration-response assay, FMAL-actin plus TMR-fC1-C2; assay type: binding
How it was run: as §1

[5] = test system: TMR-cC0-C2 (C0-C2 fragment of human cMyBP-C); experiment: FLT-TMR concentration-response assay (FLT of TMR on cC0-C2, no actin); assay type: binding; conditions: 60 μM compound
How it was run: as §1

[6] = test system: bovine cardiac (left ventricular) myofibrils; experiment: Cardiac myofibril ATPase assay; assay type: biochemical; conditions: 50 μM compound, pCa 8 to pCa 4
Description: Rabbit psoas and bovine cardiac myofibrils were prepared as described in our previous study ([17]). An enzyme-coupled, NADH-linked ATPase assay was used to measure skeletal and cardiac myofibril ATPase activity in 96-well microplates at 23 °C. Ionic strength was maintained below 0.2 M, so myofilaments remained insoluble and stable ([32]). To achieve optimal enzymatic activities, buffers for skeletal and cardiac myofibrils differed slightly ([33], [34]): skeletal in 50 mM MOPS, 100 mM KCl, 5 mM MgCl2, 1 mM EGTA, pH 7.0; cardiac in 20 mM MOPS, 35 mM NaCl, 5 mM MgCl2, 1 mM EGTA, pH 7.0. Each well in the microplate contained an assay mix of 0.84 mM phosphoenolpyruvate, 0.17 mM NADH, 10 U/vol pyruvate kinase, 20 U/vol lactate dehydrogenase. The concentration of free Ca^2+ was controlled by EGTA buffering ([35]). Myofibrils were dispensed in microplates with a multichannel pipette and were incubated with assay mix plus compound of interest for 20 min at 23 °C. The concentration of myofibrils used was 0.01 mg/ml for skeletal and 0.05 mg/ml for cardiac myofibrils. The assay was started upon the addition of ATP, at a final concentration of 2.1 mM (total volume to 200 μl), and absorbance was recorded at 340 nm in a SpectraMax Plus microplate spectrophotometer from Molecular Devices. The steady-state myofibrillar ATPase rate was measured from NADH oxidation, measured as the rate of decrease in absorption at 340 nm for 30 min, with absorption data collected every 15 s. All data and statistical analysis of steady-state kinetics were conducted with the OriginPro program. The results were fitted with the Hill equation:(6) […] is the ATPase rate and n is the Hill coefficient. ATPase activity is reported on the μmol ATP/mg protein/min scale. Average data are presented as mean ± SD. Sample means are derived from three different myofibril preps (N = 3), each done in duplicate (n = 6). The effects of compounds on ATPase activity of myofibrils were determined in the presence of 50 μM compound, across a 12-point pCa range from 4.0 (activation) to 8.0 (relaxation). The calcium sensitivity (pCa50) was determined by fitting the curves to the Hill equation. […] The normalized ATPase activity of the selected compounds can be found in Figure 6.

CC[C@H](C)C[C@H](C)CCCCCCCCC(=O)N[C@H]1C[C@@H](O)[C@@H](O)NC(=O)[C@@H]2[C@@H](O)CCN2C(=O)[C@H]([C@H](O)CC(N)=O)NC(=O)[C@H]([C@H](O)[C@@H](O)c2ccc(O)cc2)NC(=O)[C@@H]2C[C@@H](O)CN2C(=O)[C@H]([C@@H](C)O)NC1=O [Pneumocandin B0] ({Tetradecanoyl(10R,12S-Me2)}-[Orn(4R-OH,5R-OH)]T[Hyp][hTyr(3S-OH,4S-OH)][Gln(3R-OH)][Pro(3S-OH)]; lactam 1-C)
cC0-C2#P FLT change (% change from DMSO, FLT of TMR-MyBP-C) [1]: 13.2% | effect on FLT-FRET / binding between FMAL-actin and PKA-phosphorylated TMR-cC0-C2 (in words) [2]: decreasing the binding | effect on FLT-FRET / binding between FMAL-actin and TMR-cC0-C2 (in words) [3]: increased the binding | effect on FLT-FRET / binding between FMAL-actin and TMR-fC1-C2 (in words) [4]: increased the binding | increase in actin binding (fC1-C2-actin FRET) ([4]; skeletal MyBP-C): 24% | cC0-C2/cC0-C2#P (ratio of FLT changes) [5]: 0.9 | cC0-C2 FLT change (% change from DMSO, FLT of TMR-MyBP-C) [5]: 12.4% | effect on cardiac MF ATPase activity (in words) [6]: ATPase-activating effect

From article PMC10692721, “Drug discovery for heart failure targeting myosin-binding protein C” (The Journal of Biological Chemistry, 2023)
